Key:
c-Met [1] = target: T1, c-Met (Homo sapiens, UniProt P08581); assay: biochemical; conditions: read-out: IC50 (nM) in c-Met enzyme assay
T1 construct: recombinant kinase domain of c-Met

c-Met [2] = target: T1, c-Met; assay: HTRF c-Met kinase assay; also radiometric kinase panel (Met activity -2 at […]); assay type: biochemical; conditions: read-out: IC50 (nM) in c-Met enzyme assay

T1 sequence (P08581 956-1390 limits assumed): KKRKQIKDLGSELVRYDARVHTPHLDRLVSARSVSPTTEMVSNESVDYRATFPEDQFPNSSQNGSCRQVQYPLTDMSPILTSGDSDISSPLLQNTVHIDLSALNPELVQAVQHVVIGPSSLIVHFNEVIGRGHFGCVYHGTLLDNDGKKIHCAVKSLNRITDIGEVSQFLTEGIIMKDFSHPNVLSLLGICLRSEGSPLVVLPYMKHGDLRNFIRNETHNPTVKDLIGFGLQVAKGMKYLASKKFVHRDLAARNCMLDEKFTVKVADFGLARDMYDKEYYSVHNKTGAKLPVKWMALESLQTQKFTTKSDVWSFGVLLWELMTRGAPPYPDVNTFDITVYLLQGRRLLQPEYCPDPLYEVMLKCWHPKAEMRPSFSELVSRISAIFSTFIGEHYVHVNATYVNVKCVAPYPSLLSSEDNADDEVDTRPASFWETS

SMILES | IC50 (c-Met [1]) | IC50 (c-Met [2])
Cn1cc(-c2cnc3nnn(CC4CNc5ncccc5O4)c3n2)c2ccccc21 (centres unmarked) [KRC-00509] | 6.3 nM | 
FC(F)(F)c1cc(-c2cnc3nnn(CC4CNc5ncccc5O4)c3n2)ccc1OCCN1CCOCC1 (centres unmarked) [KRC-00715] |  | 9 nM
